Assay results taken from patent publication US20220347167A1, “A NEW TREATMENT FOR MEIBOMIAN GLAND DYSFUNCTION” (The Schepens Eye Research Institute, Inc., priority 2019, published 2022).

What was measured:
MG cells = assay: Staining of dissected mouse eyelids for MG cell differentiation markers; format: in vivo; settings: eyelids of Roxa-treated ApoE −/− mice
Source text: The mice eyelids were collected and dissected after sacrificing. The dissected samples were stained with different antibodies and dyes for lipids. For example, the dissected mice lid samples were stained with Oil Red O and LipidTox™ (Invitrogen) for evaluation of lipid accumulation. The sections were stained for pimonidazole, DNase II, HIF1α, PPARγ, Desmoglein and Desmocollin for the evaluation of cell differentiation and maturation. […] These markers include intracellular lipid accumulation, as well as expression of peroxisome proliferator-activated receptor gamma (PPAR-γ), Desmoglein and Desmocollin in MG cells.

[1] = system: apolipoprotein E-deficient (ApoE −/−) mice; assay: Serum cholesterol in ApoE −/− mice (cholesterol fluorometric assay kit); format: in vivo, mouse; settings: Roxa 10 mg/kg subcutaneous, three times per week for 12 weeks, vs vehicle, p<0.05
Experimental: (§1) The whole blood samples of mice were collected by cardiac puncture after sacrificing. The blood samples were allowed to clot by leaving it undisturbed at room temperature for 15 minutes. The clot was removed by centrifuging at 1,000-2,000×g for 10 minutes in a refrigerated centrifuge. The resulting supernatant was designated serum. Then the cholesterol level in the serum was evaluated by using a commercially available cholesterol fluorometric assay kit (#10007640, Cayman Chemical, Mich.). The weight of each mice was measured before and after the experiment. The percentage of weight gain was compared between the Roxa-treated mice and the vehicle-treated mice.
(§2) At the beginning of the study, the 16 ApoE−/− mice and 4 wild-type (WT) C57BL/6J mice, 12 weeks of age, were measured for their weight, tear volume, corneal fluorescein staining and tear breakup time (TBUT). The ApoE −/− mice were randomly divide into 2 groups (n=8 mice/group) and treated with vehicle control (2% DMSO in sterile saline, subcutaneous injection) or Roxa (10 mg/kg, subcutaneous injection). The injections were administrated three times per week (on Monday, Wednesday, and Friday mornings) for 12 weeks. […] At the end of the study, the weight, tear volume, corneal fluorescein staining and tear breakup time (TBUT) were measured again. […]

IHMGECs [2] = assay: Cell number of IHMGECs (hemocytometer); format: cell-based, human
Experimental: After being treated with 21% O2, 1% O2, 10 μM Roxa or a combination for 10 days, cell numbers were counted with a hemocytometer and the cell lysates and cell culture supernatants were collected, as previously described in Liu et al. (2019) The ocular surface 17(2):310-317. DNase II activity in fresh samples was analyzed by SREDA in agarose gels according to published protocols in Liu et al. (2019) The ocular surface 17(2):310-317 and Oka et al. (2012) Nature 485:251-255. Cell lysates and culture media were used to measure the DNase II activity inside and outside of the cells, respectively [Liu et al. (2019) The ocular surface 17(2):310-317]. After incubation for 3-24 hours at 37° C., the area of the dark circle in the gel was measured under an UV trans-illuminator at 312 nm. For comparison between conditions, values were normalized to cell number.
Low O2 increases DNase II activity and promotes cell terminal differentiation of IHMGECs (Liu et al. Ocul Surf 2019; 17:310-317). To determine whether Roxa treatment can reproduce this hypoxic effect, IHMGECs were treated with Roxa in both normoxic and 1% O2 conditions for 10 days, prior to counting cell numbers and analyzing DNase II activity in cell lysates and supernatants.

[3] = Percentage of weight gain in ApoE −/− mice; format: in vivo, mouse; settings: Roxa 10 mg/kg subcutaneous, three times per week for 12 weeks, vs vehicle, p<0.05
Experimental: as §1, §2

IHMGECs [4] = assay: Intracellular pH in IHMGECs; format: cell-based, human; settings: exposure to Roxa, in vitro
Source text: It was recently discovered that a hypoxic environment is beneficial for meibomian gland (MG) function. The mechanism(s) underlying this effect was unknown, but may be due to an increase in the levels of hypoxia-inducible factor 1α (HIF1a). In other tissues, HIF1α is the primary regulator of cellular responses to hypoxia and HIF1α expression can be induced by multiple stimuli, including hypoxia and low oxygen mimetic agents. In the current studies described in this Example, human eyelid tissues were stained for HIF1α. Immortalized human MG epithelial cells (IHMGECs) were cultured for varying time periods under normoxic (21% O2) or hypoxic (1% O2) conditions, in the presence or absence of the low oxygen mimetic agent Roxadustat (Roxa). IHMGECs were then processed for the analysis of cell number, HIF1α expression, lipid-containing vesicles, neutral and polar lipid content, DNase II activity and intracellular pH. […] The data support that the beneficial effect of hypoxia on the MG is mediated through an increased expression of HIF1α.

[5] = system: apolipoprotein E-deficient (ApoE −/−) mice; assay: MGD model in ApoE −/− mice: tear volume and meibomian gland size; format: in vivo, mouse; settings: Roxa 10 mg/kg subcutaneous, three times per week for 12 weeks
Experimental: Two groups of ApoE KO mice (vehicle-treated ApoE −/−, as control, and Roxa-treated ApoE −/−), as well as wild-type C57BL/6J mice, were measured for weight, tear volume, corneal fluorescein staining and tear breakup time (TBUT). ApoE −/− mice were randomly divided into 2 groups (n=8 mice/group): control and Roxa-treated. The ApoE−/− mice were treated with vehicle control (2% DMSO in sterile saline, subcutaneous injection) or Roxa (10 mg/kg, subcutaneous injection). The injections were administrated three times/week; on Monday, Wednesday, and Friday mornings; for 12 weeks. At the end of the study, the weight, tear volume, corneal fluorescein staining and tear breakup time (TBUT) were weighted again for comparison. The bar chart in FIG. 6 compares mean tear volume of each group of mice after treatment.
After the Roxa treatment, as described in FIG. 6, the eyelids of each mouse were dissected to assess meibomian gland size and morphology. […]
At the beginning of the study, the 16 ApoE−/− mice and 4 wild-type (WT) C57BL/6J mice, 12 weeks of age, were measured for their weight, tear volume, corneal fluorescein staining and tear breakup time (TBUT). […] At the end of the study, the weight, tear volume, corneal fluorescein staining and tear breakup time (TBUT) were measured again. […]

## Cc1nc(C(=O)NCC(=O)O)c(O)c2ccc(Oc3ccccc3)cc12 [Roxa, roxadustat]
MG cells
  expression of Desmocollin in MG cells: promoted expression
  expression of Desmoglein in MG cells: promoted expression
  expression of peroxisome proliferator-activated receptor gamma (PPAR-γ) in MG cells: promoted expression
  intracellular lipid accumulation in MG cells (differentiation marker): promoted expression
[1]
  serum cholesterol level: significantly reduced
IHMGECs [2]; Roxa alone, 21% O2, 10 days
  cell number of IHMGECs: significant decreases
IHMGECs [2]; Roxa in 1% O2, 10 days
  cell number of IHMGECs, combination of Roxa and 1% O2: significant decreases
[3]
  percentage of weight gain: significantly reduced
IHMGECs [4]
  pH in IHMGECs: decreases
[5]; vs control group and WT mice, p<0.01
  tear volume: significantly increased
[5]; vs control group, p<0.05
  meibomian gland loss in the mice eyelids (MG area): significantly reduced
